Several values for one entry are separate records, joined by “and”; a condition that tells them apart may be missing. Equal entries are not always repeated.
Tests used:
G-rich bFGF DNA fragment = assay: UV-VIS absorbance of thalidomide after incubation with bFGF DNA fragments; assay type: binding, human; conditions: G-rich fragment (91% GC) versus non-G-rich control fragment (44% GC)
Experimental: The G-rich fragment with 91% GC content and non-G-rich control fragment with 44% GC content were designed from the promoter region of bFGF (FIG. 6A). To examine whether thalidomide could interact preferentially with the G- and/or GC-rich region of bFGF, the ultraviolet-visible (UV-VIS) absorbance of thalidomide was assayed using a Hitachi U2000 Spectrophotometer with the scanning range from 330 to 190 nm. The absorbance of thalidomide would be diminished by bound tightly with the secondary structure of a DNA (Usha et al., 2005).

[1] = clinical daily dose 200 to 800 mg, maximum 1200 mg; cited from earlier work
[2] = Stability of thalidomide in culture medium alone (9 hr pre-incubation, then bFGF transcript readout); conditions: 0.1˜10 μg/ml, 9 hr at 37° C. in culture medium before 3 hr on cells
Experimental: In order to test the stability of thalidomide in the culture medium alone, the thalidomide stock solution was diluted with fresh culture medium to 0.1˜10 μg/ml and incubated at 37° C. in a humidified incubator of 5% CO2-95% air for 9 hr before being added to the U-87 MG cells for 3 hr.

G-rich hTERT promoter = conditions: Drucker et al., 2003; cited from earlier work
[3] = system: HMW and LMW bFGF isoforms in U-87 MG cells; conditions: 1 and 10 μg/ml, 12 hr
Experimental: Immunoblot (or western blot) analysis was therefore performed to analyze the amount of different bFGF isoforms and GAPDH was used as die internal control, which level would not be affected by thalidomide. After being treated with indicated concentrations (0, 0.1, 1 and 10 μg/ml) of free-form and liposomal thalidomide, U-87 MG cell lysate was prepared using lysis buffer (50 mM Tris [hydroxymethyl] aminomethane (Tris; USB), 1% (v/v) TritonX-100 (Sigma-Aldrich), 150 mM sodium chloride (NaCl; J. T. Baker), 1 mM ethylenediaminetetraacetic acid (EDTA; Sigma-Aldrich), 1 mM phenylmethylsulphonyl fluoride (PMSF; Sigma-Aldrich). Cell lysates (2 μg) containing proteins were separated with using 15% polyacrylamide gel electrophoresis and transferred to a polyvinylidene fluoride (PVDF) membrane (PerkinElmer). The membrane was incubated with polyclonal rabbit anti human bFGF antibody (ab16828, Abeam) at 1:200 dilution or anti-GAPDH antibody (ab9482, Abeam) at 1:10000 dilution, which was used as an internal control, followed by horseradish peroxidase-conjugated anti-IgG secondary antibody (Jackson ImmunoResearch) at 1:5000 dilution. The enhanced chemiluminescent (ECL; PerkinElmer) detection method (Amersham) was used for blotting analysis.

[4] = system: bFGF RNA levels in U-87 MG cells
Experimental: The U-87 MG cells were purchased from American Type Culture Collection (ATCC, Rockville, Md.) and maintained in Dulbecco's modified Eagle's medium (DMEM; Gibco) containing 10% heat inactivated fetal bovine serum (FBS; Gibco) and antibiotics, such as penicillin G (Sigma-Aldrich) and streptomycin (Sigma-Aldrich), at 37° C. in a humidified incubator of 5% CO2-95% air. Thalidomide (TYY Biopharm, Taiwan) was dissolved in dimethyl sulfoxide (DMSO; Sigma-Aldrich) first to make a stock solution of 50 mg/ml, and then diluted to various, desired concentrations with medium. The maximum of the final concentration of DMSO in the medium was 0.02%.
Real-time RT-PCR analysis was used to assess the RNA levels of bFGF in U-87 MG cells. After being treated with indicated concentrations (0, 0.1, 1 and 10 μg/ml) of thalidomide for 3 hr and 12 hr, U-87 MG cells were washed twice with ice-cold phosphate buffered saline (PBS) and RNA was extracted by using RNA-Bee™ RNA isolation solvent (Tel-test). Total RNA (5 μg) was used to prepare cDNA by using AMV reverse transcriptase (Promega). The reverse-transcribed cDNA samples were analyzed by real-time PCR using ABI Prism 7700 Sequence Detection System (Applied Biosystems) and the SYBR Green Master Mix kit (Applied Biosystems). […]

bFGF promoter = assay: bFGF promoter-controlled EGFP reporter expression in U87-bFGF-EGFP cells; assay type: cell-based, human; conditions: 0.1˜10 μg/ml, 3 hr, dose-dependent
Experimental: To evaluate the effect of thalidomide on the transcription driven by bFGF promoter, pbFGF-EGFP plasmid, containing bFGF promoter to drive the expression of enhanced green fluorescence protein (EGFP), was stably transfected into U-87 MG to get U87-bFGF-EGFP cell. […] Approximately 2×10^5 U-87 MG cells were plated in 6-well plates (Falcon) 24 hr before transfection and exposed to 3 μg total DNA (plasmid pbFGF-EGFP) and 3 μl Lipofectamine 2000 (Invitrogen Corp.) in DMEM without FBS according to the manufacture's brochure of Lipofectamine 2000. After cultured at 37° C. in a humidified incubator of 5% CO2-95% air for 48 hr, cells were trypsinized and passaged into DMEM with 10% FBS (20× dilutions). Stable transfectants (U87-bFGF-EGFP cells) were selected by using geneticin (800 μg/ml; Merck Biosciences) for 1 month.
U87-bFGF-EGFP cells were treated with indicated concentrations (0, 0.1, 1 and 10 μg/ml) of free-form thalidomide for 3 hr. The fluorescence of EGFP was measured by flow cytometry (FACS Calibur, BD Biosciences). […] The RNA levels of EGFP were analyzed by real-time RT-PCR and GAPDH was used as an internal control.

LMW-IRES = assay: Bicistronic luciferase IRES activity, U87-LMW-IRES cells; assay type: cell-based, human; conditions: 0.1˜10 μg/ml, 12 hr
Text: (§1) To examine whether the G- and/or GC-rich region in IRES of N-terminal extension of bFGF transcript could also be regulated by thalidomide, plasmids pHMW-IRES and pLMW-IRES (FIG. 5A) were designed using bicistronic vector as previous described (Creancier et al., 2000). There were two luciferase genes, Renilla luciferase (LucR) and firefly luciferase (LucF), which were controlled by the cytomegalovirus (CMV) promoter and separated by the LMW-IRES fragment (SEQ ID NO. 12) and HMW-IRES fragment (SEQ ID NO. 15) in plasmids pLMW-IRES or pHMW-IRES (FIG. 5A), respectively. […] Approximately 2×10^5 U-87 MG cells were plated in 6-well plates (Falcon) 24 hr before transfection and exposed to 3 μg total DNA (plasmid pLMW-IRES or pHMW-IRES) and 3 μl Lipofectamine 2000 (Invitrogen, Carlsbad, USA) in DMEM without FBS according to the manufacture's brochure of Lipofectamine 2000. […]
(§2) U87-LMW-IRES and U87-HMW-IRES cells were treated with indicated concentrations (0, 0.1, 1 and 10 μg/ml) of liposomal thalidomide for 12 hr, and the two luciferase activities were measured in each cell extracts by scintillation counting in a Victor 2 1420 Multilabel Counter (Wallac, PerkinElmer). The IRES activity was determined by calculating the LucR/LucF ratios (the ratio of renilla to firefly luciferase activity) normalized by the untreated control.

U-87 MG cells [5] = assay: Resazurin cell proliferation assay; assay type: cell-based, human; conditions: 0˜100 μg/ml, 72 hr (FIG. 3A)
Experimental: Cell proliferation ability was assayed using a resazurin assay (Nociari et al., 1998), in which resazurin dye was used as a redox indicator to detect cell growth, not cell death. Resazurin sodium (Sigma-Aldrich) stock solution in PBS (5 mM) was prepared, and the working solution (50 μM) was diluted from the stock using DMEM (Gibco) without FBS. Approximately 3000 U-87 MG cells were seeded onto 96-well plates (Costar, Corning), allowed to attach at 37° C. in a humidified incubator of 5% CO2-95% air for 16 hr, and treated with indicated concentrations (0, 0.1, 1, 10, and 100 μg/ml) of free-form and liposomal thalidomide for 72 h. For resazurin assay, the culture medium was removed and freshly diluted resazurin working solution (100 μl) was added into each well. Following incubation at 37° C. in a humidified incubator of 5% CO2-95% air for 2 hr, the resazurin dye was reduced by the activity of living cells, and the reduced form of resazurin was determined at a fluorescence excitation wavelength 530 nm and emission wavelength 590 nm by a Victor 2 1420 Multilable Counter (Wallac, PerkinElmer).

HMW-IRES = assay: Bicistronic luciferase IRES activity, U87-HMW-IRES cells; assay type: cell-based, human; conditions: 0.1˜10 μg/ml, 12 hr
Text: as §1, §2

U-87 MG cells [6] = assay: Soft agar colony formation assay (anchorage-independent growth); assay type: cell-based, human; conditions: 2 weeks; for colony-forming ability in soft agar (anchorage-independent growth): 0.1˜10 μg/ml
Experimental: Because bFGF was known to promote cell transformation (Vagner et al., 1996), the soft agar colony formation assay (Murphy et al., 1992) and hanging drop method (Kelm et al., 2003) were used to assess the effects of thalidomide on anchorage-independent and three-dimensional growth abilities of U-87 MG cells, respectively. The colony forming assay was performed according to a two-layer agar technique (Murphy et al., 1992). The bottom layer consisted of 0.3 ml of DMEM with 10% FBS and 0.5% (w/v) agarose (Amresco). Approximately 1000 U-87 MG cells were added to the same medium containing 10% FBS and 0.3%) (w/v) low-melting agarose (Amresco) plus indicated concentrations (0, 0.1, 1 and 10 μg/ml) of free-form thalidomide, and plated in 24-well plates (Costar, Corning) onto the base layer. […] Colony-forming ability (size, >0.1 mm) was measured.

U-87 MG cells [7] = assay: Hanging drop spheroid aggregation assay; assay type: cell-based, human; conditions: 0.1˜10 μg/ml, 48 hr, dose-dependently
Experimental: For hanging drop assay, approximately 1000 U-87 MG cells per 20 μl of cell suspension in culture medium (DMEM with 10% FBS) with indicated concentrations (0, 0.1, 1 and 10 μg/ml) of free-form thalidomide were spotted on the cover of a 6-cm culture dish (Falcon). The cover was returned to its top position with the cell suspension droplet facing down toward the bottom dish, which contained 5 ml of DMEM for maintenance of moisture during incubation. […] Each spheroid was photographed by using phase-contrast microscopy. The aggregation percentage was assayed by calculating the aggregation ability from 20 spheroids for each assay condition. The cell aggregates formed in spheroid culture was abolished by free-form thalidomide dose-dependently (FIG. 3D and FIG. 3E).

[8] = system: LPS induced TNF-α secretion by monocytes; conditions: Sampaio et al., 1991; cited from earlier work
[9] = system: bFGF proteins in U-87 MG cells; assay: Immunofluorescence staining of bFGF protein (FACS and fluorescence microscopy); assay type: cell-based, human
Experimental: U-87 MG cells were treated with indicated concentrations (0, 0.1, 1 and 10 μg/ml) of free-form and liposomal thalidomide and fixed in 4% (w/v) paraformaldehyde (Sigma-Aldrich) in PBS for 15 min, permeabilized with 0.01% (v/v) Triton X-100 (Sigma-Aldrich) or 0.5% (v/v) saponin (Sigma-Aldrich) in PBS for 30 min at room temperature. The cells were subsequently treated with 0.5 μg polyclonal rabbit anti human bFGF antibody (ab16828, Abeam) for 30 min at room temperature, washed, followed by staining with FITC-conjugated goat anti-rabbit IgG (Jackson ImmunoResearch) at 1:200 dilution for 30 min. Hoechst 33258 (Sigma-Aldrich) was used as a nuclear marker. The cells were then washed and visualized using a fluorescence microscope (Olympus Optical Co, Tokyo, Japan) or analyzed using the BD FACSCalibur™ flow cytometer (BD Biosciences). The relative expression level of cellular bFGFs was calculated by normalized the mean fluorescence value of each treatment with the empty liposome treated control. […] Because HMW bFGFs were the major isoforms localized in nucleus (Renko et al., 1990), a decrease of its signal intensity in this compartment might reflect a reduced expression of HMW bFGFs.

[10] = system: genes with GC-rich promoter; conditions: Drucker et al., 2003; cited from earlier work
[11] = listed as free-form thalidomide

activity after incubation in culture media (stability) [2]: completely lost its activity
Compound: O=C1CCC(N2C(=O)c3ccccc3C2=O)C(=O)N1 (racemic) [thalidomide, 2-(2,6-dioxo-3-piperidinyl)-1H-iso-indole-1,3(2H)-dione]
quench of the absorbance at 230 nm (G-rich bFGF DNA fragment): more severe quench
serum concentration [1]: 1800 to 10000 ng/mL
concentrations used to suppress the G-rich hTERT promoter (G-rich hTERT promoter): 12.5 µg/mL and 25 µg/mL
decrease of the HMW bFGFs compared with LMW bFGFs [3]: more dramatic than that of LMW ones
bFGF RNA levels ([4]; 0.1˜10 μg/ml, 3 hr): markedly reduced
inhibitory effect on bFGF expression (RNA) ([4]; 12 hr treatment): disappeared
EGFP fluorescence (flow cytometry) (bFGF promoter): diminish
EGFP transcripts (real-time RT-PCR) (bFGF promoter): diminish
LMW-IRES activity (LucR/LucF ratio) (LMW-IRES): down regulated
LMW-IRES activity (LucR/LucF ratio) (LMW-IRES; listed as Thalidomide): alter the IRES activity in a dose-dependent manner
suppression of the proliferation of U-87 MG cells (U-87 MG cells [5]): ineffectiveness
HMW-IRES activity (LucR/LucF ratio) (HMW-IRES): down regulated
HMW-IRES activity (LucR/LucF ratio) (HMW-IRES; listed as Thalidomide): alter the IRES activity in a dose-dependent manner
colony-forming ability in soft agar (anchorage-independent growth) (U-87 MG cells [6]): efficiently inhibited
colony-forming ability in soft agar (anchorage-independent growth) (U-87 MG cells [6]; [11]): dose-dependent response
effective concentration on colony-forming ability in soft agar (U-87 MG cells [6]): 0.1 µg/mL
cell aggregates formed in spheroid culture (U-87 MG cells [7]): efficiently inhibited
cell aggregates formed in spheroid culture (U-87 MG cells [7]; [11]): abolished
concentration inhibiting LPS induced TNF-α secretion [8]: 0.3 µg/mL
total level of bFGF proteins ([9]; FACS, 12 hr (FIG. 2A)): down-regulated
nuclear level of bFGF proteins ([9]; fluorescence microscopy, 12 hr (FIG. 2B)): down-regulated
concentration down-regulating transcripts levels for genes with GC-rich promoter [10]: over 12.5 μg/ml
